Assay results from the NIST ThermoML archive (doi:10.1021/je700700f).

Assays:
[1] = 298.15 K, Liquid; for viscosity: Capillary tube (Ostwald / Ubbelohde) method
[2] = refractive index (Na D-line) (dimensionless); details: 298.15 K; 101.33 kPa; Liquid; Standard Abbe refractometry
[3] = xn = mol fraction of the nth substance listed; details: 298.15 K, 101 kPa, Liquid; for viscosity: Capillary tube (Ostwald / Ubbelohde) method
[4] = refractive index (Na D-line) (dimensionless); xn = mol fraction of the nth substance listed; details: 298.15 K, 101 kPa, Liquid, Standard Abbe refractometry

CCOS(=O)(=O)[O-].CCn1cc[n+](C)c1 [1-ethyl-3-methylimidazolium ethyl sulfate]
[1], 101.33 kPa
Details | mass density [kg/m3] | viscosity [mPa·s]
– | 1237.63 | 97.58

CCCO [propan-1-ol]
[1], 101 kPa
Details | mass density [kg/m3] | viscosity [mPa·s]
– | 799.6 | 2.017

Details | refractive index
[2] | 1.38309

CCCO [propan-1-ol] + O
Details | mass density, [3] [kg/m3] | refractive index, [4] | viscosity, [3] [mPa·s]
x1 = 0.0504 | 975.1 | 1.34612 | 1.616
x1 = 0.0993 | 953.3 | 1.35475 | 2.121
x1 = 0.1986 | 914.9 | 1.36491 | 2.599
x1 = 0.2979 | 887.2 | 1.37116 | 2.691
x1 = 0.3949 | 866.9 | 1.37516 | 2.61
x1 = 0.4955 | 850.3 | 1.37805 | 2.494
x1 = 0.5953 | 836.9 | 1.38008 | 2.339
x1 = 0.6995 | 825.6 | 1.38154 | 2.221
x1 = 0.7969 | 816.3 | 1.38239 | 2.124
x1 = 0.8983 | 807.7 | 1.38299 | 2.026
x1 = 0.9518 | 803.5 | 1.38308 | 1.998
x1 = 1 | 799.6 | 1.38309 | 2.017

CC(C)O [propan-2-ol]
[1], 101 kPa
Details | mass density [kg/m3] | viscosity [mPa·s]
– | 780.7 | 2.082

Details | refractive index
[2] | 1.375

CC(C)O [propan-2-ol] + O
Details | mass density, [3] [kg/m3] | refractive index, [4] | viscosity, [3] [mPa·s]
x1 = 0.0491 | 974.6 | 1.3456 | 1.718
x1 = 0.1008 | 953.6 | 1.3557 | 2.495
x1 = 0.2011 | 912.6 | 1.365 | 3.038
x1 = 0.2994 | 881.6 | 1.3697 | 3.087
x1 = 0.3992 | 857.7 | 1.3724 | 2.924
x1 = 0.4981 | 838.8 | 1.374 | 2.693
x1 = 0.5979 | 823.5 | 1.3749 | 2.489
x1 = 0.6987 | 810.6 | 1.3754 | 2.274
x1 = 0.7993 | 799.4 | 1.3756 | 2.153
x1 = 0.8998 | 789.8 | 1.3754 | 2.073
x1 = 0.9495 | 785.4 | 1.3752 | 2.063
x1 = 1 | 780.7 | 1.375 | 2.082
